Results from publication PMC12724303 (Journal of Virology, 2025).
Where two headings read alike, the source gives them in different places.

Columns and labels:
SARS-CoV-2 Wuhan variant [1] = type: cell-based
SARS-CoV-2 Wuhan variant [2] = experiment: microbe, parasite or virus in culture; type: cell-based
SARS-CoV-2 Delta variant = type: cell-based
[3] = test system: SARS-CoV-2 virion-associated aminophospholipids (procoagulant activity); type: biochemical
[4] = test system: SARS-CoV-2 Wuhan variant in Vero E6 cells; type: cell-based
[5] = test system: SARS-CoV-2 Wuhan variant particles (N protein and spike protein)
SARS-CoV-2 Beta variant = type: cell-based
[6] = test system: SARS-CoV-2 Wuhan variant in Vero E6/TMPRSS2 cells; type: cell-based
[7] = test system: SARS-CoV-2 Wuhan variant virions
[8] = test system: SARS-CoV-2 viral particles; type: cell-based
SARS-CoV-2 Wuhan variant [9] = type: cell-based; remark: listed apart in the source

In the case of hydroxypropyl-α-cyclodextrin [HP-α-CyD], the “infection inhibitory activity (cytopathic effect)” value (“infection inhibitory activity” below) (SARS-CoV-2 Wuhan variant [1]) is reported as “showed infection inhibitory activity”.
For `COC[C@H]1O[C@@H]2O[C@H]3[C@H](O)[C@@H](OC)[C@@H](O[C@H]4[C@H](O)[C@@H](OC)[C@@H](O[C@H]5[C@H](O)[C@@H](OC)[C@@H](O[C@H]6[C@H](O)[C@@H](OC)[C@@H](O[C@H]7[C@H](O)[C@@H](OC)[C@@H](O[C@H]8[C@H](O)[C@@H](OC)[C@@H](O[C@H]1[C@H](O)[C@H]2OC)O[C@@H]8COC)O[C@@H]7COC)O[C@@H]6COC)O[C@@H]5COC)O[C@@H]4COC)O[C@@H]3COC` [DM-β-CyD, 2,6-di-O-methyl-β-cyclodextrin], the “selectivity index (SI = CC50/IC50)” value (SARS-CoV-2 Wuhan variant [2]) was 4.04, the IC50 (SARS-CoV-2 Wuhan variant [2]; Severe acute respiratory syndrome coronavirus 2, VeroE6/TMPRSS2, 72 h, read-out: IC50 against SARS-CoV-2 infection) was 1420 µM and the “infection inhibitory activity” value (SARS-CoV-2 Delta variant) was “showed infection inhibitory activity”. For the same compound, the “infection inhibitory activity” value (SARS-CoV-2 Wuhan variant [1]) was “showed infection inhibitory activity” and the “effect on clotting time” value ([3]; 5 mM) was “no effect on clotting time”.
In the case of `COC[C@H]1O[C@@H]2O[C@H]3[C@H](OC(C)=O)[C@@H](OC)[C@@H](O[C@H]4[C@H](OC(C)=O)[C@@H](OC)[C@@H](O[C@H]5[C@H](OC(C)=O)[C@@H](OC)[C@@H](O[C@H]6[C@H](OC(C)=O)[C@@H](OC)[C@@H](O[C@H]7[C@H](OC(C)=O)[C@@H](OC)[C@@H](O[C@H]8[C@H](OC(C)=O)[C@@H](OC)[C@@H](O[C@H]1[C@H](OC(C)=O)[C@H]2OC)O[C@@H]8COC)O[C@@H]7COC)O[C@@H]6COC)O[C@@H]5COC)O[C@@H]4COC)O[C@@H]3COC` [DMA-β-CyD], the “concentration at the highest dilution completely inhibiting the cytopathic effect” value (SARS-CoV-2 Delta variant) is reported as 156 µM, the “highest dilution completely inhibiting the cytopathic effect” value (SARS-CoV-2 Delta variant) is reported as 64 fold and the “infection inhibitory activity” value (SARS-CoV-2 Delta variant) is reported as “showed infection inhibitory activity”. The “concentration at the highest dilution completely inhibiting the cytopathic effect” value (SARS-CoV-2 Wuhan variant [1]) was 156 µM, the “highest dilution completely inhibiting the cytopathic effect” value (SARS-CoV-2 Wuhan variant [1]) was 64 fold and the “infection inhibitory activity” value (SARS-CoV-2 Wuhan variant [1]) was “showed infection inhibitory activity”. The “reduction in TCID50/mL compared with the control” value [4] was 2.22, the “band intensities of N protein and spike protein” value [5] was “marked reduction in the band intensities of both proteins” and the “concentration at the highest dilution completely inhibiting the cytopathic effect” value (SARS-CoV-2 Beta variant) was 625 µM. For the same compound, the “highest dilution completely inhibiting the cytopathic effect” value (SARS-CoV-2 Beta variant) was 16 fold, the “infectivity of treated virus” value [6] was 7.34 × 10^3 TCID50/mL and the “effect on clotting time” value [3] was “insufficient recovery of clotting time”. For the same compound, the “effect on clotting time” value ([3]; 10 mM, 37°C) was “markedly prolonged clotting time”, the “binding of viral particles to anti-RBD antibody-coated plate (RNA quantification)” value [7] was “concentration-dependent decrease in binding” and the “reduction of infectivity by pretreatment of viral particles” value [8] was 2.25–2.67. For the same compound, the “intracellular SARS-CoV-2 gRNA level (viral entry)” value (SARS-CoV-2 Wuhan variant [9]) was “decreased in a DMA-β-CyD-concentration-dependent manner” and the viral entry (SARS-CoV-2 Wuhan variant [9]) was “inhibited the entry of these particles”.
